Paper PMC3951875 (Bioorganic & medicinal chemistry letters, 2014)

Key:
αIIbβ3 receptor [1] = biological target: T1, αIIbβ3 receptor (Homo sapiens, UniProt P05106+P08514); test: Platelet aggregation; type: cell-based
[2] = Biological stability in mouse plasma; type: in vitro ADME
hERG channel = hERG channel (Homo sapiens, UniProt Q12809); test: hERG channel inhibition; type: biochemical; settings: @ 25 μM; < 5% at all tested concentrations (0.008-25.0 μM)
[3] = Microsomal stability, mouse; type: in vitro ADME; settings: mouse microsomes
[4] = Microsomal stability, rat; type: in vitro ADME; settings: rat microsomes
[5] = Microsomal stability, human; type: in vitro ADME; settings: human microsomes
Exposure = type: in vivo; settings: for CO: IV, dose 0.03 mg, av. weight 27 g; for AUC / Cmax / Tmax / half-life: in vivo, 0.03 mg
Caco2 = test: PAMPA and Caco2 permeability analyses; type: in vitro ADME; settings: data not shown
Long-term solubilization = type: physicochemical
phospholipidosis = test: Drug-induced phospholipidosis; type: cell-based; settings: data not shown
αVβ3 receptor = αVβ3 receptor (Homo sapiens, UniProt P05106+P06756); test: Activity versus the αVβ3 receptor; settings: manuscript in preparation
Sequence of αVβ3 receptor (P06756 31-889 limits assumed): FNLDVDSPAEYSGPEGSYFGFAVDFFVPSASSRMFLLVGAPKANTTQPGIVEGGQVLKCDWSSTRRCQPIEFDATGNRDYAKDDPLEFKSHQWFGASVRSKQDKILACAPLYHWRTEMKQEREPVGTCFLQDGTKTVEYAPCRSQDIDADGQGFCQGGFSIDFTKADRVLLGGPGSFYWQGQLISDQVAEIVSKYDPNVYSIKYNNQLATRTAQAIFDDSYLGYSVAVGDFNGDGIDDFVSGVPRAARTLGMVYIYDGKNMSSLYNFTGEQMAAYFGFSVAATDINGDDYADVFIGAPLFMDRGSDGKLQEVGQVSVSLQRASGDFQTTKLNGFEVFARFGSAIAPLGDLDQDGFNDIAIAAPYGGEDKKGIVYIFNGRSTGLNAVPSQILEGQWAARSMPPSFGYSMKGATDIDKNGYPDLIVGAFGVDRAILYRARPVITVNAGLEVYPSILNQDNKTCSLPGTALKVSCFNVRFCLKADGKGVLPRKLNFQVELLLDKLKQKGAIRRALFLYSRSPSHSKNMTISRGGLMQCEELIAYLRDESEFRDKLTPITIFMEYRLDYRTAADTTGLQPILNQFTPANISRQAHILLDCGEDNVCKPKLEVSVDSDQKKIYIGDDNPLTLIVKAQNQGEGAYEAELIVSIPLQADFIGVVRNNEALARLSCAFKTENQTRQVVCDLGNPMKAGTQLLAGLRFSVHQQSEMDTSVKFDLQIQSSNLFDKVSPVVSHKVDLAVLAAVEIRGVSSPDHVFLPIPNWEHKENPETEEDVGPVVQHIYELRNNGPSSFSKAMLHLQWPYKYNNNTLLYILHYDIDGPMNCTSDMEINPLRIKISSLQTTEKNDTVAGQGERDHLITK
Sequence of αVβ3 receptor (P06756 891-1048 partner limits assumed): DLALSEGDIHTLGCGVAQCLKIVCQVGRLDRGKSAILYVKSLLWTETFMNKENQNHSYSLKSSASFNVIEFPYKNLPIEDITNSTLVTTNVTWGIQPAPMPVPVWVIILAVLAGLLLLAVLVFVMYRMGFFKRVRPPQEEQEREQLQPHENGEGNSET
Sequence of αVβ3 receptor (P05106 27-788): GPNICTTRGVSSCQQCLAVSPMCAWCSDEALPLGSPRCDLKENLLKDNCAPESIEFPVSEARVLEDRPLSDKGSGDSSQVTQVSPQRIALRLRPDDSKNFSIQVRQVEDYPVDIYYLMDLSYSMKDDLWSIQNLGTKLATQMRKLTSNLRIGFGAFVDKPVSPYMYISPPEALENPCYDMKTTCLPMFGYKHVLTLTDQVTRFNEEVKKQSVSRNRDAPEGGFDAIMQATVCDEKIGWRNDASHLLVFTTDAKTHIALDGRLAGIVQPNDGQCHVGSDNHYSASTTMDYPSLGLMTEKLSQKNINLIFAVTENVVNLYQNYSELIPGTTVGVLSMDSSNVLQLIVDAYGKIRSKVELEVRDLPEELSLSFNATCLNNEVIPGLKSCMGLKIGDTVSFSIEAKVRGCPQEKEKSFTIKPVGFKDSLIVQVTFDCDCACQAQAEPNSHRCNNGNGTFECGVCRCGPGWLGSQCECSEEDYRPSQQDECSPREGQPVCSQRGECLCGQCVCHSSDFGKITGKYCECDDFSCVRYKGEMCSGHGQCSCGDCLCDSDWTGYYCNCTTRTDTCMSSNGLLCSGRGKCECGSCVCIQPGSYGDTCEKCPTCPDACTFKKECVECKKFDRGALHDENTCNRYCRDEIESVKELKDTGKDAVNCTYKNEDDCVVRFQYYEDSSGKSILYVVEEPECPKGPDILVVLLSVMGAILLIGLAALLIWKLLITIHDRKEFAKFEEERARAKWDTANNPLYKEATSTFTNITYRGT

αIIbβ3 receptor [6] = biological target: T1, αIIbβ3 receptor; test: Priming of the receptor for fibrinogen binding; settings: manuscript in preparation
αIIbβ3 receptor [7] = biological target: T1, αIIbβ3 receptor; test: β3 conformation by binding of a conformation-specific monoclonal antibody
[8] = Chemical stability as a solution; type: physicochemical; settings: both DMSO-based and aqueous

T1 sequence (P08514 32-887 limits assumed): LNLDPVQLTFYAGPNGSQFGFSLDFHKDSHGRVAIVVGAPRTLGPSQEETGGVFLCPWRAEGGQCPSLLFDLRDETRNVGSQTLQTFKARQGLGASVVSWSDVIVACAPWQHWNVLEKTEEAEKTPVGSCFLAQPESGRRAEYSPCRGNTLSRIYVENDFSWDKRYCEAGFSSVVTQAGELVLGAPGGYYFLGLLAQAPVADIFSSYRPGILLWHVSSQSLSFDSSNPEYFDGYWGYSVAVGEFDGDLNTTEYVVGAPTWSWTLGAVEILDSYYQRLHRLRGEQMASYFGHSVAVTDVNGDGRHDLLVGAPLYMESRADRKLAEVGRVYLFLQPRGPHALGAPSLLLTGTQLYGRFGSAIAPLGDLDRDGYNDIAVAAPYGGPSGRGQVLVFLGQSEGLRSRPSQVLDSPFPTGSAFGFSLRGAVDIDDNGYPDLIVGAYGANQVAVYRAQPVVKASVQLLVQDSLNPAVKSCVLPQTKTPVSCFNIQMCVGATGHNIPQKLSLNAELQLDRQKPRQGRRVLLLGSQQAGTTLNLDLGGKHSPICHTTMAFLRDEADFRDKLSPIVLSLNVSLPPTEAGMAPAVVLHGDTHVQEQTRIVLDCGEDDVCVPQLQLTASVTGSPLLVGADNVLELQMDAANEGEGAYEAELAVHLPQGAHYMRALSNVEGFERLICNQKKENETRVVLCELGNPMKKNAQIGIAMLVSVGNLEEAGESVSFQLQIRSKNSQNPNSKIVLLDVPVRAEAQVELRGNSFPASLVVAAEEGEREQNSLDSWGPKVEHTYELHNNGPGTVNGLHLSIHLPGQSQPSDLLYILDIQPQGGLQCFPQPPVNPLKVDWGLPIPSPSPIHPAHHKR
T1 sequence (P08514 891-1039 partner limits assumed): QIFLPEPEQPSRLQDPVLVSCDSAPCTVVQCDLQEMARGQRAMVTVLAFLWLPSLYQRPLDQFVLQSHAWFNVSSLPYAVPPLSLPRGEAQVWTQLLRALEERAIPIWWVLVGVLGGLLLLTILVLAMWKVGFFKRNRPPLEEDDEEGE
T1 sequence (P05106 27-788): as the sequence (P05106 27-788) above
Sequence of hERG channel (Q12809 whole entry): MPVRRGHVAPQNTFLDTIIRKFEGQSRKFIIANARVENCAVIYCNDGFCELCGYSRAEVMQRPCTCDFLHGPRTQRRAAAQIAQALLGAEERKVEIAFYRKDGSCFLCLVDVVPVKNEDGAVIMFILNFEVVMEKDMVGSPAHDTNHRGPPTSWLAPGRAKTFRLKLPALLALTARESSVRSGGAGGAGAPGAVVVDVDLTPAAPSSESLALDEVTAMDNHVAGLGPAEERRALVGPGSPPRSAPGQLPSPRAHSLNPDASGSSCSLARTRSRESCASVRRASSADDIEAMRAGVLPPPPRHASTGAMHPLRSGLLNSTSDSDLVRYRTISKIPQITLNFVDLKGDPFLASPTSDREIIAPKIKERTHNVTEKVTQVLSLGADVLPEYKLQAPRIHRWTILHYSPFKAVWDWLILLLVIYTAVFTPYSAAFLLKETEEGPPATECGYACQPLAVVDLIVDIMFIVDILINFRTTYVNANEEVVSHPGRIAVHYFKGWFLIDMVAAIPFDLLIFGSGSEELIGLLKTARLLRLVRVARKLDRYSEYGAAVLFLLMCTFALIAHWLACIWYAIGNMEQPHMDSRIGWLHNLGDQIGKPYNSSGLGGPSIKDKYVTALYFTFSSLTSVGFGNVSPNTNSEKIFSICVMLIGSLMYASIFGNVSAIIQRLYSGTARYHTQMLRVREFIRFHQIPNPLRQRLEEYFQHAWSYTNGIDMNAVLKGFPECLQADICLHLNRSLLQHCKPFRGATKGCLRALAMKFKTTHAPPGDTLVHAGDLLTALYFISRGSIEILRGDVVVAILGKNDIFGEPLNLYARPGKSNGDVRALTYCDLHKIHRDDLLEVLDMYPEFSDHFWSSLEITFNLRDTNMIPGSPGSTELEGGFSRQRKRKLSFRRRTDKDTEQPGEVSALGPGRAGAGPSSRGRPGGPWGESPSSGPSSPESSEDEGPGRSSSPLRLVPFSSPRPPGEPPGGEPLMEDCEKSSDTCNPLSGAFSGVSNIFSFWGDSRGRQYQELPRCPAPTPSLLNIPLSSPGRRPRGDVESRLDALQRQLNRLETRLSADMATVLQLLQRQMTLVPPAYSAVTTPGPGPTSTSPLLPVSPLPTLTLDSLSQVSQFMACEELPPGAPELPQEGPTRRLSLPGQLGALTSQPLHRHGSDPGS

| Biological Stability ([2]; 15 min.) | Biological Stability ([2]; 60 min.) | Biological Stability ([2]; 120 min.) | CO (Exposure) [µg/mL] | AUC (Exposure; ip) [ng·h/mL] | Cmax (Exposure; ip) [ng/mL] | Tmax (Exposure; ip) [min] | AUC (Exposure; iv) [ng·h/mL] | half-life (Exposure; iv) [min] | SMILES | hERG Inhibition (hERG channel) [% @ 25 μM] | PAMPA and Caco2 permeability analyses (Caco2) | other results |
| --- | --- | --- | --- | --- | --- | --- | --- | --- | --- | --- | --- | --- |
| – | – | – | – | – | – | – | – | – | CCc1nn2c(=O)cc(N3CCNCC3)nc2s1 [compound 1] | – | – | IC50 (αIIbβ3 receptor [1]): 4 to 10 µM |
| 97.5 (15 min.) | 93.3 (60 min.) | 84.5 (120 min.) | 1.354 | 45 | 222 | 4.8 | 123 | 4.2 | NCC(=O)Nc1cccc(-c2nn3c(=O)cc(N4CCNCC4)nc3s2)c1 [compound 2] | < 5 | unlikely that either agent possesses high oral bioavailability | t1/2 [3]: > det. limit (mouse); t1/2 [4]: > det. limit (rat); t1/2 [5]: > det. limit (human) |
| 100 (15 min.) | 99.5 (60 min.) | 91.7 (120 min.) | 1.145 | 87 | 405 | 4.8 | 137 | 4.2 | NCC(=O)Nc1cncc(-c2nn3c(=O)cc(N4CCNCC4)nc3s2)c1 [compound 13] | < 5 | unlikely that either agent possesses high oral bioavailability | solubility (Long-term solubilization): ≥ 60 mg/mL; induction of phospholipidosis (phospholipidosis): No appreciable induction of phospholipidosis; activity versus the αVβ3 receptor (αVβ3 receptor): does not possess any activity; priming of the receptor for fibrinogen binding (αIIbβ3 receptor [6]): neither primes the receptor for fibrinogen binding; change of β3 conformation (αIIbβ3 receptor [7]): nor changes the β3 conformation |
| – | – | – | – | – | – | – | – | – | NCC(=O)Nc1cc(-c2nn3c(=O)cc(N4CCNCC4)nc3s2)ccn1 [compound 14] | – | – | chemical stability as a solution [8]: poor chemical stability |
